This is an account of results in patent US20220017833A1, “Methods and Compositions for Scavenging Sulfides from Hydrocarbon Fluids and Aqueous Streams” (Nexgen Oilfield Chemicals, LLC, priority 2019, published 2022).

For series [1] the following is noted: octanol-water partition logarithm; source not stated; cited from earlier work.
The nature of series [2]: Short Reaction Time Capacity Test. The note with it: for contribution to the BT capacity (coefficient of best fit equation) / contribution to the FD capacity (coefficient of best fit equation): Short Reaction Time Capacity Test, Table 2 compositions. From the text: (§1) Referring now to FIG. 1, therein is schematically depicted a sulfide scavenger testing system 100 comprising a gas source 2, a flow regulator 4, gas treatment vessel 6, and a sulfide measurement device 8. In one testing embodiment, gas (not shown) is flowed from gas source 2 via gas feed piping 10 into flow regulator 4, which regulates gas flow to gas treatment vessel 6 via regulated gas feed piping 12. The regulated gas flows into gas treatment vessel 6 via a bottom inlet 14 thereof, where it comes into contact with a volume of liquid 16 comprising a sulfide scavenger system (not separately labeled). The gas, having been treated by the liquid, flows out of a top end 18 of gas treatment vessel 6 and flows into sulfide measurement device 8 via treated gas outlet piping 20.
In one embodiment, gas flow from the flow regulator 4 is controlled such that the gas is flowed into the gas treatment vessel 6 at a flow rate of 100 mL/min. up to 500 mL/min. In one embodiment, a gas sparging device, such as a fine pore frit (not shown), is utilized to better distribute the gas into the scavenger liquid. In one embodiment, the gas treatment vessel 6 contains about 20 g of a liquid H2S scavenger, such as one or more diaminols/diaminacetals in a chemical system as described above. In one aspect, to the extent possible, H2S and/or CO2 are scavenged from the gas by the scavenger and the treated (“sweet”) gas exits top end 18 of treatment vessel 6. In one embodiment, sulfide measurement device 8 monitors the concentration of H2S leaving treatment vessel 6. in the gas phase. In other embodiments (not shown), a CO2 measurement device may be similarly employed to monitor the concentration of CO2 leaving treatment vessel 6 in the gas phase.
(§2) In one embodiment, gas is flowed through sulfide scavenger testing system 100 until the outlet H2S concentration reaches a 4,000 ppm target, at which point the test is concluded. This relative time duration before the target is reached is used to compare H2S scavenger capacity given the kinetics of each sulfide scavenger system. The longer the duration, the better the capacity.
(§3) The fine bubbles produced rise slowly, providing plenty of time, plenty of surface area, and a short path through which the H2S must diffuse to the scavenger in the liquid 16. Detector 8 on the outlet line 20 is used to measure H2S concentration in the exiting gas. The times to first detection (FD), at a threshold of 15 ppm, and to complete breakthrough (BT), at the detector saturation of 4000 ppm (0.4%), are recorded. This test is designed to measure the effective scavenging capacity in applications with long contact times.
This test is the same as the Long Reaction Time Capacity Test, but without the gas sparging device, so as to produce larger bubbles, and at a higher feed rate of 200 mL/min, after the first 8 minutes at 100 mL/min. The larger bubbles rise quickly through the liquid 16, providing little time, little surface area, and a long path through which the H2S must diffuse to the scavenger in the liquid. This test is designed to measure the effective scavenging capacity in applications with short contact times. It is far more reaction rate dependent than the Long Reaction Time Capacity and so is a more critical and differentiating test.
With triazine, one H2S reacts twice with the same molecule of triazine, replacing one amine, so the rate is “first order”, meaning proportional to the concentration of triazine.

The nature of series [3]: Solution Homogeneity Test. In kind it is physicochemical. The note with it: Table 6, GID, water and alcohols, % composition. From the text: In one aspect, as two-phase reaction products are problematic, scavenger system homogeneity is desired. The two phases could be emulsified or otherwise finely dispersed, but in practice, even fine, seemingly stable dispersions eventually separate or stratify in extended storage or critical use and are not robust enough for practical use. They are not allowed, for example, to be fed through capillaries for fear of plugging them. In this pass/fail test, a sample is held up for visual inspection in a backlit clear vial. A clear, single-phase, homogeneous solution is a pass. Anything else is a fail.

Series [4] in a line: Long Reaction Time Capacity Test.
From the text: as §1
In one embodiment, the gas contained in gas source 2 consists substantially of about 15% H2S, and about 3% CO2, with the remainder being Methane. In one embodiment, gas flow from the flow regulator 4 is controlled such that the gas is flowed into the gas treatment vessel 6 at a flow rate of 100 mL/min. up to 500 mL/min. In one embodiment, a gas sparging device, such as a fine pore frit (not shown), is utilized to better distribute the gas into the scavenger liquid. In one embodiment, the gas treatment vessel 6 contains about 20 g of a liquid H2S scavenger, such as one or more diaminols/diaminacetals in a chemical system as described above. In one aspect, to the extent possible, H2S and/or CO2 are scavenged from the gas by the scavenger and the treated (“sweet”) gas exits top end 18 of treatment vessel 6. In one embodiment, sulfide measurement device 8 monitors the concentration of H2S leaving treatment vessel 6. in the gas phase. In other embodiments (not shown), a CO2 measurement device may be similarly employed to monitor the concentration of CO2 leaving treatment vessel 6 in the gas phase.
as §2
as §3, with “In this test, methane containing 15% H2S and 3% CO2 by weight is sparged via a fine pore frit (not shown) at 100 mL/min through a column of 20 g of scavenger solution (See FIG. 1). The fine” for “The fine”
Note that the true total capacity of a scavenger with infinite time to react is simply equal to the stoichiometry of the reaction—the moles of H2S consumable per mole of scavenging molecule, which can be calculated. This Long Reaction Time Capacity measurement falls short of that ultimate stoichiometric capacity and so is still reaction rate dependent, just less so than the Short Reaction Time Capacity Test.

[5] abbreviates: 20 g test, Eq/test Triazine 0.068, GIDAc 0.157, GIDA 0.076 (7.50 g MeOH, 2.50 g BuOH).
Where [6] appears, read: 20 g test, Triazine 7.50 g + 12.50 g water, GIDAc 11.00 g as GID, 6.00 g MeOH, 3.00 g BuOH, GIDA 6.68 g as GID, 3.32 g water, 7.50 g MeOH, 2.50 g BuOH.
Where [7] appears, read: 20 g test, Eq/test Triazine 0.068, GIDAc 0.185, GIDA 0.076.
Where [8] appears, read: 20 g test, Triazine 7.50 g + 12.50 g water, GIDAc 13.00 g as GID + 7.00 g MeOH, GIDA 6.68 g as GID, 3.32 g water, 8.00 g MeOH, 2.00 g BuOH.

With `CCCCC(CC)CO` (stereo not shown) [2EHOH, 2-Ethylhexanol], the log partition coefficient (LogP) in series [1] is given as 2.8.

In the case of `CC(=O)CC(C)C` [MIBK, methyl isobutyl ketone], in series [2], the “contribution to the BT capacity (coefficient of best fit equation)” value came to 601 minutes per equivalent and the “contribution to the FD capacity (coefficient of best fit equation)” value is given as 515 minutes per equivalent.

Turning to `CC(C)N=CC=NC(C)C` [GID, N,N′-di(propan-2-yl)ethane-1,2-diimine], the LogP in series [1] was 2.3. Further, in series [2], the “contribution to the BT capacity (coefficient of best fit equation)” value is 102 minutes per equivalent and the “contribution to the FD capacity (coefficient of best fit equation)” value is on record as 92 minutes per equivalent.

Regarding `CC(O)CO` (stereo not shown) [PG, Propylene Glycol], in series [1], the LogP is given as −1.3.

Consider `O` [H2O, Water], for which the LogP in series [1] is listed as −1.4.

In the case of `OCCO` [EG, Ethylene Glycol], the LogP in series [1] was −1.7. Besides, the “Solution Homogeneity” value is “Fail” in series [3] and “do not work” in series [3] (listed as Ethylene glycol).

As for `OCCOCCO` [DEG, Diethylene Glycol], the lipophilicity (LogP) in series [1] is −1.5. Besides, the “Solution Homogeneity” value in series [3] was “Fail”; in series [3] (listed as diethylene glycol), “do not work”.

As to `CCCCCCCCO` [n-C8OH, n-Octanol], the LogP in series [1] was 3.0.

As for `CCCCCCCO` [n-C7OH, n-Heptanol], the log partition coefficient (LogP) in series [1] is 2.5.

Consider `OCCN1CN(CCO)CN(CCO)C1` [Triazine, reference compound], for which the “Min/Eq BT” value in series [2] (setting [5]) came out at 380 Min/Eq; in series [4] (setting [7]), 994 Min/Eq. Moreover, the “Min/Eq FD” value in series [2] (setting [5]) was determined as 365 Min/Eq; in series [4] (setting [7]) it was 965 Min/Eq. The results for the “Min to BT” value in series [2] (setting [6]) and in series [4] (setting [8]) were 26 min and 68 min, respectively. For the same compound, the “Min to FD” value in series [2] (setting [6]) is 25 min; in series [4] (setting [8]), 66 min. For the same compound, in series [2] (Graph 1 (FIG. 3)), the “molar capacity at short reaction times (comparison, accounting for molar concentration)” value is given as “lower molar capacity at short reaction times”. In addition, in series [4] (Graph 1 (FIG. 3)), the “molar capacity at long reaction times (comparison, accounting for molar concentration)” value is “greater molar capacity than GIDAc at long reaction times”.

On to `CO` [MeOH, Methanol], for which, in series [1], the lipophilicity (LogP) is −0.7.

For the compound Hexylene Glycol [HG], the LogP in series [1] was 0.0.
